Test results from article PMC10857328, “Utilization of Biopolymer-Based Lutein Emulsion as an Effective Delivery System to Improve Lutein Bioavailability in Neonatal Rats” (Nutrients, 2024).
Like-named read-outs stand apart in the source and are kept apart here. Marks after values point to notes of the source that are not given here.

Key:
[1] = Daily dosing study 2 (maternal standard chow diet containing lutein): serum and tissue lutein concentrations; type: in vivo, neonatal Sprague-Dawley rats; settings: 2 mg/kg daily oral P5-P18
Method: Serum and tissue lutein concentration was determined using an ultra-performance liquid chromatography (UPLC) system (Waters, Milford, MA, USA) equipped with a photo-diode array detector (PDA)/MS/MS, according to our well-established methods with slight modification. As for the serum, 100 μL of the sample was incubated with 2 mL of 100% ethanol at room temperature for an hour for lipid extraction. For the tissues, ~0.1 g of the sample was weighed, homogenized, and incubated with 2 mL of 100% ethanol at room temperature for an hour. An amount of 1 mL of 5% (w/v) potassium hydroxide was added to the sample and incubated in a water bath at 60 °C for 45 min for saponification. Upon saponification, samples were allowed to cool for about 15 min, and then an addition of 4 mL of hexane containing 0.1% butylated hydroxytoluene (w/v) and 2 mL of deionized water was added. The mixture was vortexed for 20 s and centrifuged at 1600 rpm at 25 °C for 15 min. The upper layer was collected following centrifugation and dried under nitrogen at 37 °C. The dried sample was then rinsed twice with hexane, dried, and reconstituted with 100 µL of acetonitrile-methanol. The reconstituted sample was centrifuged for 2 min to remove any possible precipitation. For UPLC analysis, 10 µL of the sample was injected into the Waters Acquity UPLC HSS T3 column. Solvent A was acetonitrile: methanol (50:50, v/v), and solvent B was 100% isopropanol. The mobile phase was made up of solvent A and solvent B in a volume ratio of 95:5 (v/v). The flow rate was set as 0.5 mL/min, and the column temperature was maintained at 35 °C. The detection wavelength was set at 446 nm. Retinyl acetate (Sigma-Aldrich, St. Louis, MO, USA) was used as the internal standard. To mimic the human dietary intake of lutein, daily dosing study 2 was conducted (Figure 1C). In this study, maternal rats consumed a standard rodent chow diet containing lutein from ingredients (i.e., ground corn) during pregnancy and lactation (Figure S2). The study design was similar to that of daily dosing study 1, except that a negative control group, in which rat pups were given olive oil from P5 to P18, was included in this study. Serum and tissue lutein concentrations were analyzed using the methods described in Section 2.3.2.

[2] = encapsulation technique Polymer, Mice, cited from earlier work
[3] = Daily dosing study 1 (maternal purified diet with no lutein): serum and tissue lutein concentrations; type: in vivo, neonatal Sprague-Dawley rats; settings: for Lutein concentration, serum: 2 mg/kg daily oral P5-P18, sampled P19
Method: Serum and tissue lutein concentration was determined using an ultra-performance liquid chromatography (UPLC) system (Waters, Milford, MA, USA) equipped with a photo-diode array detector (PDA)/MS/MS, according to our well-established methods with slight modification. As for the serum, 100 μL of the sample was incubated with 2 mL of 100% ethanol at room temperature for an hour for lipid extraction. For the tissues, ~0.1 g of the sample was weighed, homogenized, and incubated with 2 mL of 100% ethanol at room temperature for an hour. An amount of 1 mL of 5% (w/v) potassium hydroxide was added to the sample and incubated in a water bath at 60 °C for 45 min for saponification. Upon saponification, samples were allowed to cool for about 15 min, and then an addition of 4 mL of hexane containing 0.1% butylated hydroxytoluene (w/v) and 2 mL of deionized water was added. The mixture was vortexed for 20 s and centrifuged at 1600 rpm at 25 °C for 15 min. The upper layer was collected following centrifugation and dried under nitrogen at 37 °C. The dried sample was then rinsed twice with hexane, dried, and reconstituted with 100 µL of acetonitrile-methanol. The reconstituted sample was centrifuged for 2 min to remove any possible precipitation. For UPLC analysis, 10 µL of the sample was injected into the Waters Acquity UPLC HSS T3 column. Solvent A was acetonitrile: methanol (50:50, v/v), and solvent B was 100% isopropanol. The mobile phase was made up of solvent A and solvent B in a volume ratio of 95:5 (v/v). The flow rate was set as 0.5 mL/min, and the column temperature was maintained at 35 °C. The detection wavelength was set at 446 nm. Retinyl acetate (Sigma-Aldrich, St. Louis, MO, USA) was used as the internal standard. To determine the effects of daily consumption of CTA-stabilized lutein emulsion on tissue lutein status, two daily dosing studies were conducted. The procedures were approved by the Institutional Animal Care and Use Committee of the University of Alabama (Number: 21-02-4373, 4 February 2021). For daily dosing study 1 (Figure 1B), on P5, rat pups (n = 8–9/group) were randomly selected from the litters and received an oral dose of either free lutein (i.e., lutein ester dissolved in olive oil) or lutein emulsion both containing 2 mg/kg body weight of lutein. […] Dosing was repeated daily until P18. The dosage was determined from previous research in both rodent and human newborns and was also established as an Acceptable Daily Intake for lutein by the Joint Food and Agricultural Organization/World Health Organization. On P19, pups were euthanized. Rats are known to wean between P19 and P21 [47]. Blood from vena cava, liver, spleen, brain, eye, kidney, lung, white adipose tissue (WAT), and brown adipose tissue (BAT) were collected. Blood samples were centrifuged to obtain serum. Serum and collected tissues were frozen at −80 °C until analysis. Serum and tissue lutein concentrations were analyzed using the methods described in Section 2.3.2.

[4] = encapsulation technique Nanoparticles, Sprague-Dawley rats, cited from earlier work
[5] = maternal standard chow diet containing lutein
[6] = maternal standard chow diet containing lutein, listed as free lutein
[7] = 2 mg/kg daily oral P5-P18, maternal purified diet with no lutein
[8] = 2 mg/kg daily oral P5-P18, maternal purified diet with no lutein, listed as free lutein
[9] = daily dosing study 1 vs study 2

Lutein ester [Free Lutein]
Lutein concentration, BAT [1, 5]: 0.026 ± 0.014 ^a nmol/g
Lutein concentration, WAT [1, 5]: 0.34 ± 0.23 ^a nmol/g
Lutein concentration, brain [1, 5]: 0.06 ± 0.04 ^ab nmol/g
Lutein concentration, eye [1, 5]: 0.01 ± 0.003 ^c nmol/g
Lutein concentration, kidney [1, 5]: 0.12 ± 0.03 ^b nmol/g
Lutein concentration, liver [1, 5]: 1.23 ± 0.38 ^bc nmol/g
Lutein concentration, lung [1, 5]: 0.043 ± 0.007 ^a nmol/g
Lutein concentration, serum [1, 5]: 17.6 ± 4.39 nM
Lutein concentration, spleen [1, 5]: 0.58 ± 0.29 ^b nmol/g
Lutein concentration, serum ([1]; maternal standard chow diet containing lutein (Table 4)): 17.61 ± 4.39 ^b nmol/L
Lutein concentration, BAT [1, 6]: 0.026 ± 0.014 nmol/g
Lutein concentration, WAT [1, 6]: 0.34 ± 0.23 nmol/g
Lutein concentration, brain [1, 6]: 0.06 ± 0.04 nmol/g
Lutein concentration, eye [1, 6]: 0.01 ± 0.003 nmol/g
Lutein concentration, kidney [1, 6]: 0.12 ± 0.03 nmol/g
Lutein concentration, liver [1, 6]: 1.23 ± 0.38 nmol/g
Lutein concentration, lung [1, 6]: 0.043 ± 0.007 nmol/g
Tmax (serum) ([2]; ref Arunkumar et al. (2015) [42]): 4 h
Tmax (serum) ([2]; ref Ranganathan et al. (2019) [57]): 4 h
Lutein concentration, serum ([3]; maternal purified diet with no lutein): 112.42 ± 34.60 ^a nmol/L
Lutein concentration, serum ([3]; maternal purified diet with no lutein, listed as free lutein): 112.42 ± 34.60 nmol/L
Lutein concentration, BAT [3, 7]: 0.02 ± 0.002 ^a nmol/g
Lutein concentration, WAT [3, 7]: 0.08 ± 0.04 ^a nmol/g
Lutein concentration, brain [3, 7]: 0.04 ± 0.01 ^b nmol/g
Lutein concentration, eye [3, 7]: 0.04 ± 0.01 ^a nmol/g
Lutein concentration, kidney [3, 7]: 0.12± 0.04 ^b nmol/g
Lutein concentration, liver [3, 7]: 2.52 ± 1.29 ^b nmol/g
Lutein concentration, lung [3, 7]: 0.06 ± 0.01 ^a nmol/g
Lutein concentration, spleen [3, 7]: 0.66 ± 0.18 ^a nmol/g
Lutein concentration, BAT [3, 8]: 0.02 ± 0.002 nmol/g
Lutein concentration, brain [3, 8]: 0.04 ± 0.01 nmol/g
Lutein concentration, eye [3, 8]: 0.02 ± 0.007 nmol/g
Lutein concentration, kidney [3, 8]: 0.12 ± 0.04 nmol/g
Lutein concentration, liver [3, 8]: 2.52 ± 1.29 nmol/g
Lutein concentration, lung [3, 8]: 0.06 ± 0.01 nmol/g
Lutein concentration, spleen [3, 8]: 0.66 ± 0.18 nmol/g
Fold higher eye lutein concentration, no-lutein maternal diet vs diet containing lutein [3, 9]: 2.00 fold
Fold higher liver lutein concentration, no-lutein maternal diet vs diet containing lutein [3, 9]: 2.04 fold
Fold higher serum lutein concentration, no-lutein maternal diet vs diet containing lutein [3, 9]: 6.38 fold
Tmax (serum) ([4]; ref Chang et al. (2018) [59]): 3 h
Tmax (serum) ([4]; ref Liu et al. (2017) [37]): 2 h
Tmax (serum) ([4]; ref Wu et al. (2019) [54]): 2 h
Tmax (serum) ([4]; ref Zhang et al. (2015) [58]): 6 ± 2.2 h
